Source: the supplement of paper PMC10307832

Columns and labels:
Assay in all cases: relative viability (nuclei count vs DMSO), 5 days (fraction); higher = more cells survive
H3255 = tested on: H3255
Outline: (§1)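 Values are medians from duplicate plates. Each reflects relative viability, defined as the nuclei count of treated wells over that of vehicle wells. Lung cancer cell lines in 1536-well plates were pin-tool dosed one day after seeding with one drug alone or with a fixed anchor-drug dose plus five library-drug doses (not always all listed) in √10 steps, then fixed, stained and imaged at 4× after 5 days.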

NCI-H520 = tested on: NCI-H520
Outline: as §1

NCI-H2087 = tested on: NCI-H2087
Outline: as §1

NCI-H1793 = tested on: NCI-H1793
Outline: as §1

ChaGo-K-1 = tested on: ChaGo-K-1
Outline: as §1

NCI-H1563 = tested on: NCI-H1563
Outline: as §1

NCI-H1651 = tested on: NCI-H1651
Outline: as §1

SK-MES-1 = tested on: SK-MES-1
Outline: as §1

LCLC-103H = tested on: LCLC-103H
Outline: as §1

LCLC-97TM1 = tested on: LCLC-97TM1
Outline: as §1

NCI-H1993 = tested on: NCI-H1993
Outline: as §1

NCI-H23 = tested on: NCI-H23
Outline: as §1

NCI-H322M = tested on: NCI-H322M
Outline: as §1

EMC-BAC-2 = tested on: EMC-BAC-2
Outline: as §1

EPLC-272H = tested on: EPLC-272H
Outline: as §1

UMC-11 = tested on: UMC-11
Outline: as §1

NCI-H1395 = tested on: NCI-H1395
Outline: as §1

NCI-H650 = tested on: NCI-H650
Outline: as §1

HCC-827 = tested on: HCC-827
Outline: as §1

NCI-H1355 = tested on: NCI-H1355
Outline: as §1

NCI-H2405 = tested on: NCI-H2405
Outline: as §1

NCI-H1944 = tested on: NCI-H1944
Outline: as §1

NCI-H2085 = tested on: NCI-H2085
Outline: as §1

For `CC(C)Oc1cc(Nc2nc(N[C@@H](C)c3ccc(F)cn3)ncc2Cl)n[nH]1` [AZ23] + COc1cc2c(Oc3ccc(NC(=O)C4(C(=O)Nc5ccc(F)cc5)CC4)cc3F)ccnc2cc1OCCCN1CCOCC1 [Foretinib] (partner 0.25 µM), the relative viability (H3255; first compound 0.01 µM) was 0.881, the relative viability (H3255; first compound 0.03162 µM) was 0.764 and the relative viability (H3255; first compound 0.3162 µM) was 0.915. The relative viability (NCI-H520; first compound 0.01 µM) was 0.813, the relative viability (NCI-H520; first compound 0.03162 µM) was 0.966 and the relative viability (NCI-H520; first compound 0.3162 µM) was 0.677. The relative viability (NCI-H2087; first compound 0.01 µM) was 1.49, the relative viability (NCI-H2087; first compound 0.03162 µM) was 1.09 and the relative viability (NCI-H2087; first compound 0.3162 µM) was 1.02. For the same compound, the relative viability (NCI-H1793; first compound 0.01 µM) was 0.879, the relative viability (NCI-H1793; first compound 0.03162 µM) was 0.859 and the relative viability (NCI-H1793; first compound 0.3162 µM) was 0.713. The relative viability (ChaGo-K-1; first compound 0.01 µM) was 1.17, the relative viability (ChaGo-K-1; first compound 0.03162 µM) was 0.906 and the relative viability (ChaGo-K-1; first compound 0.3162 µM) was 0.95. It also gave a relative viability (NCI-H1563; first compound 0.01 µM) of 0.922, a relative viability (NCI-H1563; first compound 0.03162 µM) of 1.01 and a relative viability (NCI-H1563; first compound 0.3162 µM) of 0.993. For the same compound, the relative viability (NCI-H1651; first compound 0.03162 µM) was 0.828, the relative viability (NCI-H1651; first compound 0.3162 µM) was 0.844 and the relative viability (SK-MES-1; first compound 0.01 µM) was 0.761. The relative viability (SK-MES-1; first compound 0.03162 µM) was 1.05, the relative viability (SK-MES-1; first compound 0.3162 µM) was 0.977 and the relative viability (LCLC-103H; first compound 0.01 µM) was 0.729. The relative viability (LCLC-103H; first compound 0.03162 µM) was 0.817, the relative viability (LCLC-103H; first compound 0.3162 µM) was 0.78 and the relative viability (LCLC-97TM1; first compound 0.01 µM) was 0.922. It also gave a relative viability (LCLC-97TM1; first compound 0.03162 µM) of 0.928, a relative viability (LCLC-97TM1; first compound 0.3162 µM) of 1.01 and a relative viability (NCI-H1993; first compound 0.01 µM) of 0.66. It also gave a relative viability (NCI-H1993; first compound 0.03162 µM) of 0.725, a relative viability (NCI-H1993; first compound 0.3162 µM) of 0.753 and a relative viability (NCI-H23; first compound 0.03162 µM) of 1.07. For the same compound, the relative viability (NCI-H23; first compound 0.3162 µM) was 0.596, the relative viability (NCI-H322M; first compound 0.03162 µM) was 0.96 and the relative viability (NCI-H322M; first compound 0.3162 µM) was 1.04. The relative viability (EMC-BAC-2; first compound 0.01 µM) was 1.12, the relative viability (EMC-BAC-2; first compound 0.03162 µM) was 1.06 and the relative viability (EMC-BAC-2; first compound 0.3162 µM) was 0.989. It also gave a relative viability (EPLC-272H; first compound 0.01 µM) of 0.77, a relative viability (EPLC-272H; first compound 0.03162 µM) of 0.74 and a relative viability (EPLC-272H; first compound 0.3162 µM) of 0.676. The relative viability (UMC-11; first compound 0.01 µM) was 1.08, the relative viability (UMC-11; first compound 0.03162 µM) was 1.15 and the relative viability (UMC-11; first compound 0.3162 µM) was 0.951. The relative viability (NCI-H1395; first compound 0.03162 µM) was 1.02, the relative viability (NCI-H1395; first compound 0.3162 µM) was 1 and the relative viability (NCI-H650; first compound 0.01 µM) was 0.988. The relative viability (NCI-H650; first compound 0.03162 µM) was 1.01, the relative viability (NCI-H650; first compound 0.3162 µM) was 1 and the relative viability (HCC-827; first compound 0.01 µM) was 1.05. For the same compound, the relative viability (HCC-827; first compound 0.03162 µM) was 1.09, the relative viability (HCC-827; first compound 0.3162 µM) was 1.11 and the relative viability (NCI-H1355; first compound 0.01 µM) was 1.21. The relative viability (NCI-H1355; first compound 0.03162 µM) was 1.07, the relative viability (NCI-H1355; first compound 0.3162 µM) was 1.01 and the relative viability (NCI-H2405; first compound 0.01 µM) was 1.04. For the same compound, the relative viability (NCI-H2405; first compound 0.03162 µM) was 1.05, the relative viability (NCI-H2405; first compound 0.3162 µM) was 1.04 and the relative viability (NCI-H1944; first compound 0.01 µM) was 0.811. It also gave a relative viability (NCI-H1944; first compound 0.03162 µM) of 0.954, a relative viability (NCI-H1944; first compound 0.3162 µM) of 0.864 and a relative viability (NCI-H2085; first compound 0.01 µM) of 0.848. It also gave a relative viability (NCI-H2085; first compound 0.03162 µM) of 1.22 and a relative viability (NCI-H2085; first compound 0.3162 µM) of 1.08.

`CC(C)Oc1cc(Nc2nc(N[C@@H](C)c3ccc(F)cn3)ncc2Cl)n[nH]1` [AZ23] + Cc1nc(Nc2ncc(C(=O)Nc3c(C)cccc3Cl)s2)cc(N2CCN(CCO)CC2)n1 [Dasatinib] (partner 0.075 µM) was tested, and the relative viability (H3255; first compound 0.01 µM) was 0.364, the relative viability (H3255; first compound 0.03162 µM) was 0.66 and the relative viability (H3255; first compound 0.3162 µM) was 0.418. The relative viability (NCI-H520; first compound 0.01 µM) was 0.194, the relative viability (NCI-H520; first compound 0.03162 µM) was 0.24 and the relative viability (NCI-H520; first compound 0.3162 µM) was 0.162. For the same compound, the relative viability (NCI-H2087; first compound 0.01 µM) was 1.29, the relative viability (NCI-H2087; first compound 0.03162 µM) was 1.04 and the relative viability (NCI-H2087; first compound 0.3162 µM) was 0.751. The relative viability (NCI-H1793; first compound 0.01 µM) was 0.375, the relative viability (NCI-H1793; first compound 0.03162 µM) was 0.404 and the relative viability (NCI-H1793; first compound 0.3162 µM) was 0.383. For the same compound, the relative viability (ChaGo-K-1; first compound 0.01 µM) was 0.687, the relative viability (ChaGo-K-1; first compound 0.03162 µM) was 0.627 and the relative viability (ChaGo-K-1; first compound 0.3162 µM) was 0.566. The relative viability (NCI-H1563; first compound 0.01 µM) was 0.491, the relative viability (NCI-H1563; first compound 0.03162 µM) was 0.533 and the relative viability (NCI-H1563; first compound 0.3162 µM) was 0.469. The relative viability (NCI-H1651; first compound 0.03162 µM) was 0.471, the relative viability (NCI-H1651; first compound 0.3162 µM) was 0.386 and the relative viability (SK-MES-1; first compound 0.03162 µM) was 0.275. It also gave a relative viability (SK-MES-1; first compound 0.3162 µM) of 0.288, a relative viability (LCLC-103H; first compound 0.01 µM) of 0.443 and a relative viability (LCLC-103H; first compound 0.03162 µM) of 0.576. The relative viability (LCLC-103H; first compound 0.3162 µM) was 0.499, the relative viability (LCLC-97TM1; first compound 0.01 µM) was 0.924 and the relative viability (LCLC-97TM1; first compound 0.03162 µM) was 0.889. The relative viability (LCLC-97TM1; first compound 0.3162 µM) was 0.829, the relative viability (NCI-H1993; first compound 0.01 µM) was 0.501 and the relative viability (NCI-H1993; first compound 0.03162 µM) was 0.613. The relative viability (NCI-H1993; first compound 0.3162 µM) was 0.522, the relative viability (NCI-H23; first compound 0.03162 µM) was 0.883 and the relative viability (NCI-H23; first compound 0.3162 µM) was 0.761. For the same compound, the relative viability (NCI-H322M; first compound 0.03162 µM) was 0.255, the relative viability (NCI-H322M; first compound 0.3162 µM) was 0.256 and the relative viability (EMC-BAC-2; first compound 0.01 µM) was 0.308. The relative viability (EMC-BAC-2; first compound 0.03162 µM) was 0.381, the relative viability (EMC-BAC-2; first compound 0.3162 µM) was 0.364 and the relative viability (EPLC-272H; first compound 0.01 µM) was 0.38. It also gave a relative viability (EPLC-272H; first compound 0.03162 µM) of 0.305, a relative viability (EPLC-272H; first compound 0.3162 µM) of 0.273 and a relative viability (UMC-11; first compound 0.01 µM) of 0.593. It also gave a relative viability (UMC-11; first compound 0.03162 µM) of 0.504, a relative viability (UMC-11; first compound 0.3162 µM) of 0.481 and a relative viability (NCI-H1395; first compound 0.03162 µM) of 0.481. It also gave a relative viability (NCI-H1395; first compound 0.3162 µM) of 0.359, a relative viability (NCI-H650; first compound 0.01 µM) of 0.441 and a relative viability (NCI-H650; first compound 0.03162 µM) of 0.46. For the same compound, the relative viability (NCI-H650; first compound 0.3162 µM) was 0.48, the relative viability (HCC-827; first compound 0.01 µM) was 0.301 and the relative viability (HCC-827; first compound 0.03162 µM) was 0.288. For the same compound, the relative viability (HCC-827; first compound 0.3162 µM) was 0.282, the relative viability (NCI-H1355; first compound 0.01 µM) was 0.793 and the relative viability (NCI-H1355; first compound 0.03162 µM) was 0.833. It also gave a relative viability (NCI-H1355; first compound 0.3162 µM) of 0.633, a relative viability (NCI-H2405; first compound 0.01 µM) of 0.225 and a relative viability (NCI-H2405; first compound 0.03162 µM) of 0.23. It also gave a relative viability (NCI-H2405; first compound 0.3162 µM) of 0.215, a relative viability (NCI-H1944; first compound 0.01 µM) of 0.198 and a relative viability (NCI-H1944; first compound 0.03162 µM) of 0.246. For the same compound, the relative viability (NCI-H1944; first compound 0.3162 µM) was 0.208, the relative viability (NCI-H2085; first compound 0.01 µM) was 0.232 and the relative viability (NCI-H2085; first compound 0.03162 µM) was 0.214. For the same compound, the relative viability (NCI-H2085; first compound 0.3162 µM) was 0.199.
